Test: placebo-controlled clinical study on the gene-dependent (GNB3 C825T) effectiveness of Sibutramine for weight reduction
Format: in vivo, human
Procedure: A placebo-controlled clinical study on the gene-dependent effectiveness of Sibutramine was carried out. This study included 105 patients with a body-mass index between 30 and 40 kg/m^2. All patients received a reduced calorie diet of maximum 1500-2000 kcal per day. Moreover the patients were urged to increase their physical activity and for example to walk at least 30 minutes a day at an increased pace. Forty nine patients received 15 mg Sibutramine daily to support weight reduction, while 56 patients received a placebo. The therapy was continued for 54 weeks. The body weight and body size of all patients were known at the beginning of the study and after 54 weeks of therapy. The end points of the study were the weight loss after 54 weeks, the number of patients with at least 5% reduction in body weight, and the number of patients with at least 10% reduction of body weight.
From all patients, DNA was isolated from a blood sample in order to analyze the C825T allele status in gene GNB3. Genotyping was done by means of PCR reaction and restriction analysis in processes familiar to one skilled in the area. The study results are shown in the graph of FIG. 1. In the placebo group, the average weight reduction was 5.3±7.3 kg, while the weight loss in the group treated with Sibutramine was 10.0±8.7 kg. This difference was statistically significant (p=0.036). FIG. 1 illustrates the genotype-dependent weight loss. In the placebo group, the average weight reduction was 9.1±2.8 kg for the TT genotype, 7.4±1.5 kg for the TC genotype, but only 2.8±1.1 kg for the CC genotype. This difference was statistically significant (One-way ANOVA, P=0.03).

CC(C)CC(N(C)C)C1(c2ccc(Cl)cc2)CCC1 (stereo not shown) [Sibutramine]
odds ratio (OR) for a 5% weight loss, Sibutramine compared to placebo (825T allele carriers, 54 weeks, p=0.26, not significant): 1.8
odds ratio (OR) for a 10% weight loss, Sibutramine compared to placebo (825T allele carriers, 54 weeks, p=0.4): 1.6
weight loss (CC genotype (825C allele carrier), 15 mg Sibutramine daily, 54 weeks): 9.9 kg
odds ratio (OR) for a 5% weight reduction, long-term, Sibutramine versus placebo (CC genotype, re-examined 2 years after the end of the study, p=0.0358): 4.4
further weight loss compared to placebo (TT/TC genotype (825T allele carriers), 15 mg Sibutramine daily, 54 weeks): no further weight loss compared to the placebo
weight loss (average weight reduction) (all genotypes, patients BMI 30-40 kg/m^2, 15 mg Sibutramine daily plus reduced calorie diet and physical activity, after 54 weeks): 10.0 ± 8.7 kg
effect of Sibutramine compared to placebo on weight loss (carriers of the 3882A allele and the 5249G allele): same favorable results as for the 825C allele carrier
odds ratio (OR) for a 5% weight reduction, long-term, Sibutramine versus placebo (genotype not printed (contrasted with CC), 2 years after the end of the study, p 0.2139, not significant): 2.333
odds ratio (OR) for losing more than 5% body weight, Sibutramine compared to placebo (homozygotic 825C allele carriers (CC genotype), 54 weeks, p 0.0002): 12.0
odds ratio (OR) for the 10% weight reduction, Sibutramine compared to placebo (homozygotic 825C allele carriers (CC genotype), 54 weeks, p 0.0028): 9.69

From US20030082610A1, “Use of a gene change in gene GNB3 coding for the B3 subunit of human G proteins” (SniP Biotech GmbH & Co. KG, priority 2001, published 2003)
